{"source": "paper PMC2725291", "about": "“Genetic and Molecular Basis of Individual Differences in Human Umami Taste Perception” (PLoS ONE, 2009)", "key": {"[1]": {"system": "TAS1R1/TAS1R3 variants", "assay": "Ca2+ imaging (FlexStation II), comparison across receptor variants (AR, TR, AC, TC)", "format": "cell-based, human", "conditions": "MSG alone", "excerpt": "Intronless human TAS1Rs and Gαl6 expression constructs were generated in the pEF-DEST51 Gateway vector (Invitrogen) by genomic DNA-based methods. To subclone each gene into the vector, a Kozak cassette was introduced at the 5′ end before the start codon. Gαl6 chimeras were generated by PCR with mutagenic primers. The carboxyl-terminal tail of Gαl6, five-residue (EINLL) was replaced by its counterpart from Gαi3 (ECGLY; Gα16-i3), Gαgust (DCGLF; Gα16-gust), and Gα16-gust44 was generated as described. The integrity of all DNA constructs was confirmed by DNA sequencing. Point mutations in TAS1Rs were made using the same overlapping PCR strategy with mutagenic primers.\nHEK293 cells were cultured at 37°C under a humidified atmosphere containing 5% CO2 in Dulbecco's modified Eagle's medium supplemented with 10% fetal bovine serum. To obtain reproducible Ca^2+ responses, cells were split every 2 days before cells become confluent. Cells were discarded after 2 months of passages and new cells were prepared from frozen-stock. For calcium imaging experiments, cells were seeded onto a 35 mm recording chamber or poly-D-lysine coated 96-well black-wall, clear-bottom recording plates. After 24 hrs at 37°C, confluent cells (60∼70%) were washed in OptiMEM medium supplemented with GlutaMAX-I (invitrogen) and plasmid DNAs were transiently cotransfected into HEK293 cells using Lipofectamine2000 regent (invitrogen) (2.0 µl per 1.0 µg DNA). […]\nStudent's t-test was used for detection of differences in the mean recognition thresholds between males and females. […] The mean values (the center±S.E. of gaussian curve on X-axis) in the distribution of recognition thresholds defined by TAS1R1/TAS1R3 haplotypes (TAS1R1-372A/TAS1R3-757R homozygotes, TAS1R1-372T/TAS1R3-757R homozygotes, homo- and heterozygotes containing TAS1R3-757C) were calculated using gauss fit function of Origin 5.0 (OriginLab Corp). For Ca^2+ imaging analysis, data were normalized to response to 10 µM ISO, and mean values (±S.E.) were calculated from 10∼18 independent analyses."}, "[2]": {"system": "Mock-transfected HEK cells", "assay": "Ca2+ imaging in mock-transfected HEK cells", "format": "cell-based, human", "conditions": "without the three genes, Gα16-i3 alone, Gα16-i3/TAS1R1 without TAS1R3, Gα16-i3/TAS1R3 without TAS1R1", "experimental": "HEK293 cells were cultured at 37°C under a humidified atmosphere containing 5% CO2 in Dulbecco's modified Eagle's medium supplemented with 10% fetal bovine serum. To obtain reproducible Ca^2+ responses, cells were split every 2 days before cells become confluent. Cells were discarded after 2 months of passages and new cells were prepared from frozen-stock. For calcium imaging experiments, cells were seeded onto a 35 mm recording chamber or poly-D-lysine coated 96-well black-wall, clear-bottom recording plates. […] The transfection efficiencies were estimated by visualizing DsRed fluorescence (data not shown) or by immunocytochemistry of TAS1R3, and were typically 50∼55% (Figure S4). […]\nTwo Ca^2+ imaging systems were used. […] Taste solutions diluted in HBSS were applied sequentially to the cells for 30 s with a peristaltic pump at a flow rate of 1.5 ml/min, and fluorescence images were obtained using a S Fluor ×20/0.75 objective lens (Nikon) via a cooled-CCD camera (C6790, Hamamatsu Photonics) fitted to a TE300 microscope (Nikon). Acquisition and analysis of these fluorescence images used AquaCosmos software (v. 1.3, Hamamatsu Photonics). […] Responses were measured from 30 individual responding cells. […]"}, "[3]": {"system": "254 Japanese subjects", "set-up": "method as in PMID 11839608", "conditions": "humans; cited from earlier work"}}}
{"smiles": "N[C@@H](CCC(=O)O)C(=O)[O-].[Na+]", "note": "[MSG, monosodium glutamate]", "values": [{"measurement": "more sensitive responses (EC50 comparison) of 372T/757R (TR) compared to the other variants (AR, AC and TC)", "setting": "[1]", "value": "about 1.5 fold"}, {"measurement": "EC50", "setting": "[1]; the other variants (AR, AC and TC)", "value": "27.6 to 32.2", "unit": "mM"}, {"measurement": "Ca2+ response of mock-transfected HEK cells", "setting": "[2]", "value": "did not respond"}, {"measurement": "difference of taste thresholds between taster and hypotaster groups", "setting": "[3]", "value": "about 5 fold"}]}
